From patent EP0476120B1, “PROCESS FOR PREPARING EQUIMOLAR SALTS OF ASPARTIC ACID AND MAGNESIUM, MAGNESIUM ASPARTATE SALT OBTAINED BY SAID PROCESS AND ITS APPLICATIONS” (LA[…] SPINDLER, priority 1990, dated 1991)
Where “and” joins values, the source holds several entries; their conditions need not be identical. Equal entries are not always repeated. Where two headings read alike, the source gives them in different places.

Assays:
[1] = tested on: singes cynomolggus (Macaca fascicularis); settings: monkey
From the text: L'étude a été réalisée chez sept singes cynomolggus (Macaca fascicularis), de sexe mâle et femelle, pesant entre 2 et 5 kg.
Un mois avant le début de l'étude, sous anesthésie générale (kétamine + xylazine) huit électrodes (boules d'argent) ont été implantées dans la table osseuse, au niveau des aires frontale, centrale, pariétale et occipitale droites et gauche. L'électrocorticogramme a été enregistré sur un électroencéphalographe REEGA mini-huit (Alvar Electronic) en dérivations monopolaires par rapport à une référence commune.
Les enregistrements ont été réalisés sur des animaux habitués au siège à contention, en position assise, dans une pièce calme mais non insonorisée, en ambiance lumineuse tamisée.
Les huit dérivations EEG ont été analysées simultanément par un Neuromapper 1620 (Neuroscience) qui extrait du signal les transformées de Fourier ("Fast Fourier Transform" : FFT). En fait, 90 échantillons de 2 secondes, soit 3 minutes de tracé exempt d'artefact, ont été analysés. Les données recueillies correspondent à l'amplitude (»V) de chacune des 5 bandes de fréquence EEG classiques selon les bornes suivantes : delta de 0 à 4 Hz ; thêta de 7 à 8 Hz ; alpha de 8 à 13 Hz, bêta₁ de 13 à 20 Hz ; bêta₂ de 20 à 30 Hz.
Pour chacune de ces bandes ont ensuite été calculées : • Les puissances absolues en »V² • les puissances relatives (%), c'est-à-dire la puissance de chacune des bandes de fréquence rapportée à la puissance totale du spectre (power) • la "SEF 95 % (Spectral Edge Frequency 95 %) qui est la fréquence en deçà de laquelle se situent 95 % de la puissance totale du spectre, • le rapport entre fréquences rapides et fréquences lentes : alpha+ bêta/delta + thêta ( α+β/δ+ϑ [formula] )
La dernière ingestion a précédé de 1 heure la seconde administration de diazépam.
Le diazépam (ampoules injectables - Valium® 10 - Roche) a été administré par voie orale, en solution aqueuse, sous un volume de 10 ml/singe, à des doses comprises entre 0,5 mg.kg⁻¹ et 4 mg.kg⁻¹ (doses différentes du fait d'une sensibilité individuelle propre à chaque sujet).
100 (le seuil de probabilité statistique choisi peut paraître élevé ; il est en rapport avec le faible nombre de sujets : n=7). L'ensemble de l'analyse statistique a été obtenu grâce au programme statistique SPSS/PC⁺ (SPSS Inc., Chicago)

souris [2] = settings: mouse; for Nombre de passages "punis" (moyenne): 60 min before test, controls 5,8
From the text: Le test est pratiqué chez des souris NMRI-HAN soumises à une diète hydrique préalable de 18 heures et réparties en séries de 15.
L'appareillage utilisé consiste en une boite en plexiglas dont le sol est constitué de 4 plaques métalliques séparées les unes des autres. Un circuit d'alimentation permet d'établir une différence de potentiel entre deux plaques adjacentes grâce à un contacteur. Le test est pratiqué en plaçant doucement une souris sur une des plaques du fond de l'appareil ; les plaques sont électrifiées chaque fois que la souris passe de l'une à l'autre, de telle sorte qu'elle reçoit alors un choc électrique au niveau des pattes. Les paramètres du choc sont les suivants : durée de l'impulsion électrique égale à 0,5 seconde ; intensité égale à 0,6 milliampères. Ce choc induit chez les animaux une réaction motrice évidente de fuite, la souris traversant souvent 2 à 3 plaques successivement. Les conditions expérimentales adoptées ont été les suivantes : exploration libre pendant 15 secondes, traversée punie pendant la minute suivante, les résultats étant exprimés en nombre de passages "punis" pendant cette minute. Soixante souris ont été réparties de la façon suivante :
Les administrations ont été réalisées par voie intra-gastrique, à partir de solutions aqueuses, sous un volume constant de 20 ml.kg⁻¹, 60 minutes avant le début du test. Les animaux contrôles ont reçu un même volume d'eau distillée.
Les administrations ont été réalisées par voie intra-gastrique, à partir de solutions aqueuses, sous un volume constant de 20 ml.kg⁻¹ par produit 60 minutes avant le début du test. Les animaux contrôles ont reçu un même volume d'eau distillée.
Dans un premier temps a été calculée la DA 50 (dose anxiolytique 50) du Diazépam (Valium® 10 mg - Roche, ampoule 2ml) seul, administré à des doses suivant une progression géométrique de base 0,25 et de raison 2, soit respectivement 0,25, 0,5 l et 2 mg.kg⁻¹.
La DA 50 est déterminée à partir du pourcentage d'animaux tranquillisés. Est considéré comme tranquillisé tout animal dont le nombre de passages punis est égal ou supérieur à 9, c'est-à-dire à une valeur représentant une augmentation d'au moins 50 % par rapport au score moyen d'animaux non traités.
Toutes les administrations ont été réalisées par voie intra-gastrique à partir de solutions aqueuses, sous un volume constant de 20 ml.kg⁻¹ (eau distillée pour le groupe contrôle). […] La veille du test, les souris sont soumises à une diète hydrique de 18 heures. La dernière ingestion est pratiquée une heure avant l'étude, concomitamment avec le diazépam (Valium® 10 mg - Roche, ampoules de 2 ml).

souris [3] = settings: mouse; for nombre de redressements, Total (moyenne): 3 min in cylinder
From the text: Les scores d'activité sont fonction de la surface à explorer. Ils sont également fonction de deux motivations contradictoires : la curiosité et la crainte. Il faut enfin savoir que lorsque la surface offerte permet une activité "horizontale" (marche) la curiosité parait l'emporter; par contre lorsque la surface est réduite et conduit à une activité "verticale" (redressements le long des parois d'un cylindre) il semble que la crainte anxieuse soit davantage présente et conduise à une activité soit diminuée, soit cyclique, et apparemment sans focalisation.
(§1) Ces études ont été réalisées chez des souris mâles, de souche NMRI-Han, réparties au hasard en lots de 15 souris (séries traitées) et 20 souris (série contrôle).
Au sortir de l'actimètre, les souris sont placées dans un cylindre en verre (hauteur 30 cm, diamètre 9 cm) L'exploration anxiogène a été mesurée par le nombre de redressements au cours de la première minute passée dans le cylindre, l'activité basale anxiogène étant considérée dans la même enceinte, entre 1 et 3 minutes.
(§2) Les doses ont été calculées selon une progression géométrique de base 700 (correspondant au 1/10 de la DL 50) et de raison 2, soit respectivement 175, 350, 700 et 1400 mg.kg⁻¹.
(§3) Les traitements sont réalisés 60 minutes avant le test.
(§4) Il est identique à celui décrit dans l'exemple précédent.
(§5) Les doses ont été calculées selon une progression géométrique de base 700 (correspondant au 1/10 de la DL 50) et de raison 2, soit respectivement 10,95; 21,9; 43,8; 87,5; 175; 350; 700 mg/kg. […] Les derniers traitements ont été réalisés 60 minutes avant le test.

souris [4] = settings: mouse
From the text: as §1
La motilité a été mesurée à l'aide d'un actimètre "type Dews" (Brit. J. Pharmacol. 1953, 8 : 46). Les animaux sont placés un par un dans une enceinte rectangulaire en matière plastique transparente (mesures intérieures : L = 24 cm, l = 15 cm, h = 9,5 cm), couverte par un grillage métallique et traversée par deux faisceaux infra-rouges perpendiculaires situés à 2 cm au-dessus du plancher (médianes de l'enceinte); ces deux faisceaux viennent frapper deux cellules photo-électriques reliées à un compteur d'impulsions déclenché à chaque fois que l'animal coupe un des faisceaux. Les actimètres ont été placés dans une pièce non insonorisée mais en dehors de tout bruit aigu, à une température de l'ordre de 21°C.
L'activité motrice a été mesurée au cours des 5 premières minutes (exploration non anxiogène) puis entre 5 et 15 minutes (activité basale non anxiogène).
as §2, §3, §4, §5

[5] = repeated daily dosing (13 days), 10.95 mg/kg P.O., last dose 60 min before test
[6] = repeated daily dosing (13 days), 21.9 mg/kg P.O., last dose 60 min before test
[7] = repeated daily dosing (13 days), 43.8 mg/kg P.O., last dose 60 min before test
[8] = repeated daily dosing (13 days), 87.5 mg/kg P.O., last dose 60 min before test
[9] = repeated daily dosing (13 days), 175 mg/kg P.O., last dose 60 min before test
[10] = repeated daily dosing (13 days), 350 mg/kg P.O., last dose 60 min before test
[11] = repeated daily dosing (13 days), 700 mg/kg P.O., last dose 60 min before test
[12] = single dose 175 mg.kg⁻¹ P.O., 60 min before test
[13] = single dose 350 mg.kg⁻¹ P.O., 60 min before test
[14] = single dose 700 mg.kg⁻¹ P.O., 60 min before test
[15] = single dose 700 mg.kg⁻¹ P.O., 60 min before test, listed as Mag
[16] = single dose 1400 mg.kg⁻¹ P.O., 60 min before test
[17] = repeated daily dosing (13 days), 43.8 mg/kg P.O., last dose 60 min before test, 43.8 mg/kg
[18] = repeated daily dosing (13 days), 43.8 mg/kg P.O., last dose 60 min before test, listed as Mag, 43.8 mg/kg
[19] = repeated daily dosing (13 days), 350 mg/kg P.O., last dose 60 min before test, 350 mg/kg
[20] = repeated daily dosing (13 days), 350 mg/kg P.O., last dose 60 min before test, listed as Mag, 350 mg/kg

For α-β-aspartate de magnésium, the “"SEF 95%" augmentée” value ([1]; 50 mg.kg⁻¹ orally twice daily for two weeks, before diazepam) was 0,5 Hz, the “puissance relative de la bande β accrue” value ([1]; 50 mg.kg⁻¹ orally twice daily for two weeks, resting EEG, individual values of 4 of 7 subjects) was 4,4% and 3,6% and 6,2% and 13% and the ondes delta accrues ([1]; 50 mg.kg⁻¹ orally twice daily for two weeks, individual values among the 3 other monkeys) was 5% and 8%. For the same substance, the “proportion relative de la bande β₂” value ([1]; after two weeks of α-β-aspartate de magnésium, before diazepam, reference before any drug 20 %) was 23%, the “Nombre de passages "punis" (moyenne)” value (souris [2]; single dose 300 mg.kg⁻¹ P.O.) was “n'accroît pas significativement” and the “Nombre de passages "punis" (moyenne)” value (souris [2]; single dose 300 mg.kg⁻¹ P.O., listed as Mag) was 6,4. For the same substance, the “Nombre de passages "punis" (moyenne)” value (souris [2]; single dose 600 mg.kg⁻¹ P.O.) was “accru significativement”, the “Nombre de passages "punis" (moyenne)” value (souris [2]; single dose 600 mg.kg⁻¹ P.O., listed as Mag) was 8,3 and the “Nombre de passages "punis" (moyenne)” value (souris [2]; single dose 1200 mg.kg⁻¹ P.O.) was “accru significativement”. The “Nombre de passages "punis" (moyenne)” value (souris [2]; single dose 1200 mg.kg⁻¹ P.O., listed as Mag) was 7,5, the “dose optimum (propriétés tranquillisantes mineures)” value (souris [2]; single dose P.O.) was 600 mg/kg and the “nombre de redressements, 1ère minute (moyenne)” value (souris [3]; [5]) was 16. The “nombre de redressements, 2ème minute (moyenne)” value (souris [3]; [5]) was 11, the “nombre de redressements, 3ème minute (moyenne)” value (souris [3]; [5]) was 8 and the “nombre de redressements, Total (moyenne)” value (souris [3]; [5]) was 35. The “nombre de redressements, 1ère minute (moyenne)” value (souris [3]; [6]) was 14, the “nombre de redressements, 2ème minute (moyenne)” value (souris [3]; [6]) was 9 and the “nombre de redressements, 3ème minute (moyenne)” value (souris [3]; [6]) was 6. The “nombre de redressements, Total (moyenne)” value (souris [3]; [6]) was 29, the “nombre de redressements, 1ère minute (moyenne)” value (souris [3]; [7]) was 13 and the “nombre de redressements, 2ème minute (moyenne)” value (souris [3]; [7]) was 9. For the same substance, the “nombre de redressements, 3ème minute (moyenne)” value (souris [3]; [7]) was 8, the “nombre de redressements, Total (moyenne)” value (souris [3]; [7]) was 30 and the “nombre de redressements, 1ère minute (moyenne)” value (souris [3]; [8]) was 13. For the same substance, the “nombre de redressements, 2ème minute (moyenne)” value (souris [3]; [8]) was 9, the “nombre de redressements, 3ème minute (moyenne)” value (souris [3]; [8]) was 8 and the “nombre de redressements, Total (moyenne)” value (souris [3]; [8]) was 30. For the same substance, the “nombre de redressements, 1ère minute (moyenne)” value (souris [3]; [9]) was 12, the “nombre de redressements, 2ème minute (moyenne)” value (souris [3]; [9]) was 9 and the “nombre de redressements, 3ème minute (moyenne)” value (souris [3]; [9]) was 8. The “nombre de redressements, Total (moyenne)” value (souris [3]; [9]) was 29, the “nombre de redressements, 1ère minute (moyenne)” value (souris [3]; [10]) was 13 and the “nombre de redressements, 2ème minute (moyenne)” value (souris [3]; [10]) was 10. For the same substance, the “nombre de redressements, 3ème minute (moyenne)” value (souris [3]; [10]) was 8, the “nombre de redressements, Total (moyenne)” value (souris [3]; [10]) was 31 and the “nombre de redressements, 1ère minute (moyenne)” value (souris [3]; [11]) was 14. The “nombre de redressements, 2ème minute (moyenne)” value (souris [3]; [11]) was 10, the “nombre de redressements, 3ème minute (moyenne)” value (souris [3]; [11]) was 9 and the “nombre de redressements, Total (moyenne)” value (souris [3]; [11]) was 33. The “nombre de redressements, 1ère minute (moyenne)” value (souris [3]; [12]) was 14, the “nombre de redressements, 2ème minute (moyenne)” value (souris [3]; [12]) was 8 and the “nombre de redressements, 3ème minute (moyenne)” value (souris [3]; [12]) was 7. For the same substance, the “nombre de redressements, Total (moyenne)” value (souris [3]; [12]) was 29, the “nombre de redressements, 1ère minute (moyenne)” value (souris [3]; [13]) was 15 and the “nombre de redressements, 2ème minute (moyenne)” value (souris [3]; [13]) was 9. For the same substance, the “nombre de redressements, 3ème minute (moyenne)” value (souris [3]; [13]) was 6, the “nombre de redressements, Total (moyenne)” value (souris [3]; [13]) was 30 and the “nombre de redressements, 1ère minute (moyenne)” value (souris [3]; [14]) was 15. The “nombre de redressements, 2ème minute (moyenne)” value (souris [3]; [14]) was “augmente significativement”, the “nombre de redressements, 3ème minute (moyenne)” value (souris [3]; [14]) was 7 and the “nombre de redressements, Total (moyenne)” value (souris [3]; [14]) was 32. The “nombre de redressements, 2ème minute (moyenne)” value (souris [3]; [15]) was 10, the “nombre de redressements, 1ère minute (moyenne)” value (souris [3]; [16]) was 15 and the “nombre de redressements, 2ème minute (moyenne)” value (souris [3]; [16]) was “augmente significativement”. For the same substance, the “nombre de redressements, 3ème minute (moyenne)” value (souris [3]; [16]) was 8, the “nombre de redressements, Total (moyenne)” value (souris [3]; [16]) was 34 and the “nombre de redressements, 2ème minute (moyenne)” value (souris [3]; single dose 1400 mg.kg⁻¹ P.O., 60 min before test, listed as Mag) was 11. The “Activité motrice 0-5 minutes, nombre de coupures de faisceaux (moyenne)” value (shortened to “Activité motrice 0-5 minutes”) (souris [4]; [5]) was 98, the “Activité motrice 0-15 minutes, nombre de coupures de faisceaux (moyenne)” value (“Activité motrice 0-15 minutes” below) (souris [4]; [5]) was 221 and the “Activité motrice 5-15 minutes, nombre de coupures de faisceaux (moyenne)” value (shortened to “Activité motrice 5-15 minutes”) (souris [4]; [5]) was 123. The “Activité motrice 0-5 minutes” value (souris [4]; [6]) was 104, the “Activité motrice 0-15 minutes” value (souris [4]; [6]) was 237 and the “Activité motrice 5-15 minutes” value (souris [4]; [6]) was 133. The “Activité motrice 0-15 minutes” value (souris [4]; [7]) was 232, the “Activité motrice 0-5 minutes” value (souris [4]; [17]) was “élévation significative” and the “Activité motrice 5-15 minutes” value (souris [4]; [17]) was “élévation significative”. For the same substance, the “Activité motrice 0-5 minutes” value (souris [4]; [18]) was 104, the “Activité motrice 5-15 minutes” value (souris [4]; [18]) was 128 and the “Activité motrice 0-5 minutes” value (souris [4]; [8]) was 99. For the same substance, the “Activité motrice 0-15 minutes” value (souris [4]; [8]) was 195, the “Activité motrice 5-15 minutes” value (souris [4]; [8]) was 96 and the “Activité motrice 0-5 minutes” value (souris [4]; [9]) was 106. For the same substance, the “Activité motrice 0-15 minutes” value (souris [4]; [9]) was 228, the “Activité motrice 5-15 minutes” value (souris [4]; [9]) was 122 and the “Activité motrice 0-15 minutes” value (souris [4]; [10]) was 248. The “Activité motrice 0-5 minutes” value (souris [4]; [19]) was “élévation significative”, the “Activité motrice 5-15 minutes” value (souris [4]; [19]) was “élévation significative” and the “Activité motrice 0-5 minutes” value (souris [4]; [20]) was 107. For the same substance, the “Activité motrice 5-15 minutes” value (souris [4]; [20]) was 141, the “Activité motrice 0-5 minutes” value (souris [4]; [11]) was 104 and the “Activité motrice 0-15 minutes” value (souris [4]; [11]) was 230. For the same substance, the “Activité motrice 5-15 minutes” value (souris [4]; [11]) was 126, the “Activité motrice 0-5 minutes” value (souris [4]; [12]) was 100 and the “Activité motrice 0-15 minutes” value (souris [4]; [12]) was 172. The “Activité motrice 5-15 minutes” value (souris [4]; [12]) was 72, the “Activité motrice 0-5 minutes” value (souris [4]; [13]) was 96 and the “Activité motrice 0-15 minutes” value (souris [4]; [13]) was 213. For the same substance, the “Activité motrice 5-15 minutes” value (souris [4]; [13]) was 117, the “Activité motrice 0-5 minutes” value (souris [4]; [14]) was “augmentation statistiquement significative” and the “Activité motrice 0-15 minutes” value (souris [4]; [14]) was 258. For the same substance, the “Activité motrice 5-15 minutes” value (souris [4]; [14]) was “augmentation statistiquement significative”, the “Activité motrice 0-5 minutes” value (souris [4]; [15]) was 113 and the “Activité motrice 5-15 minutes” value (souris [4]; [15]) was 145. For the same substance, the “Activité motrice 0-5 minutes” value (souris [4]; [16]) was 110, the “Activité motrice 0-15 minutes” value (souris [4]; [16]) was 214 and the “Activité motrice 5-15 minutes” value (souris [4]; [16]) was 104.
